The assay relates to NL-RLuc virus. The experiment in a line: Inhibition of HIV replication (NL-RLuc virus, luciferase readout in MT-2 cells). In kind it is cell-based. The conditions noted are these: MT-2 cells infected with NL-RLuc virus, 5 days of incubation, 10% FBS, at least 2 experiments. A digest of the protocol:
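MT-2 cells infected with NL4-3-derived virus carrying Renilla luciferase in place of part of nef, grown 5 days with serial compound dilutions in RPMI 1640/10% FBS. Virus growth read as luciferase expression. EC50 from median effect equation, at least 2 experiments.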

[1] abbreviates: Human immunodeficiency virus 1, MT2, 120 h.

pEC50: −log10 of the molar value.

`Cc1nc(Nc2ncccn2)c(-c2ccc(OCCc3ccc(F)cc3)c(F)c2)c(N2CCC(C)(C)CC2)c1[C@H](OC(C)(C)C)C(=O)O` [Example 69, (S)-2-(tert-Butoxy)-2-(4-(4,4-dimethylpiperidin-1-yl)-5-(3-fluoro-4-(4-fluorophenethoxy)phenyl)-2-methyl-6-(pyrimidin-2-ylamino)pyridin-3-yl)acetic acid] showed a pEC50 of 8.52.

Turning to `COc1ccc(CCOc2ccc(-c3cnc(C)c([C@H](OC(C)(C)C)C(=O)O)c3N3CCC(C)(C)CC3)nc2)cc1` [Example 293, (2S)-2-(tert-butoxy)-2-[4′-(4,4-dimethylpiperidin-1-yl)-5-[2-(4-methoxyphenyl)ethoxy]-6′-methyl-[2,3′-bipyridine]-5′-yl]acetic acid], the pEC50 under setting [1] is 9.00. Molecule `Cc1ncc(-c2ccc(OCc3ccccc3F)cn2)c(N2CCC(C)(C)CC2)c1[C@H](OC(C)(C)C)C(=O)O` [Example 348, (2S)-2-(tert-butoxy)-2-[4′-(4,4-dimethylpiperidin-1-yl)-5-[(2-fluorophenyl)methoxy]-6′-methyl-[2,3′-bipyridine]-5′-yl]acetic acid] showed a negative logarithm of the EC50 (pEC50) under setting [1] of 9.22. This pEC50 lies 0.22 log units higher than the previous one.

As for `Cc1nc(-c2cnn(C)c2C)c(-c2ccc(OCCc3ccc(F)cc3)cc2)c(N2CCC(C)(C)CC2)c1[C@H](OC(C)(C)C)C(=O)O` [Example 49, (S)-2-(tert-Butoxy)-2-(6-(1,5-dimethyl-1H-pyrazol-4-yl)-4-(4,4-dimethylpiperidin-1-yl)-5-(4-(4-fluorophenethoxy)phenyl)-2-methylpyridin-3-yl)acetic acid], under setting [1], the pEC50 is 9.15. For the molecule `Cc1ccc(COc2ccc(-c3cnc(C)c([C@H](OC(C)(C)C)C(=O)O)c3N3CCC(C)(C)CC3)nc2)cc1` [Example 342, (2S)-2-(tert-butoxy)-2-[4′-(4,4-dimethylpiperidin-1-yl)-6′-methyl-5-[(4-methylphenyl)methoxy]-[2,3′-bipyridine]-5′-yl]acetic acid], the pEC50 under setting [1] was 8.70. Against the preceding molecule, the pEC50 is 0.45 log units lower. `CCC(CC)COc1ccc(-c2cnc(C)c([C@H](OC(C)(C)C)C(=O)O)c2N2CCC(C)(C)CC2)nc1` [Example 359, (2S)-2-(tert-butoxy)-2-[4′-(4,4-dimethylpiperidin-1-yl)-5-(2-ethylbutoxy)-6′-methyl-[2,3′-bipyridine]-5′-yl]acetic acid] showed a pEC50 under setting [1] of 8.70.

`Cc1ncc(-c2ccc(O[C@H](C)c3ccccc3)cn2)c(N2CCC(C)(C)CC2)c1[C@H](OC(C)(C)C)C(=O)O` [Example 350, (2S)-2-(tert-butoxy)-2-[4′-(4,4-dimethylpiperidin-1-yl)-6′-methyl-5-[(1R)-1-phenylethoxy]-[2,3′-bipyridine]-5′-yl]acetic acid] gave a pEC50 under setting [1] of 8.52. Regarding `Cc1nc(CNC(=O)OC(C)(C)C)c(-c2ccc(OCCc3ccc(F)cc3)cc2)c(N2CCC(C)(C)CC2)c1[C@H](OC(C)(C)C)C(=O)O` [Example 23, (S)-2-(tert-Butoxy)-2-(6-(((tert-butoxycarbonyl)amino)methyl)-4-(4,4-dimethylpiperidin-1-yl)-5-(4-(4-fluorophenethoxy)phenyl)-2-methylpyridin-3-yl)acetic acid], under setting [1], the pEC50 was 8.70. `Cc1ncc(-c2ccc(OCCc3cccc(Cl)c3F)cn2)c(N2CCC(C)(C)CC2)c1[C@H](OC(C)(C)C)C(=O)O` [Example 354, (2S)-2-(tert-butoxy)-2-{5-[2-(3-chloro-2-fluorophenyl)ethoxy]-4′-(4,4-dimethylpiperidin-1-yl)-6′-methyl-[2,3′-bipyridine]-5′-yl}acetic acid] had a pEC50 under setting [1] of 9.30. As to `Cc1ncc(-c2ccc(/C=C\C(C)C)nc2)c(N2CCC(C)(C)CC2)c1[C@H](OC(C)(C)C)C(=O)O` [Example 422, (S,Z)-2-(tert-Butoxy)-2-(4-(4,4-dimethylpiperidin-1-yl)-6-methyl-6′-(3-methylbut-1-en-1-yl)-[3, 3′-bipyridin]-5-yl)acetic acid], the pEC50 under setting [1] was 8.00. On to `Cc1nc(N)c(-c2ccc(OCCc3ccc(F)cc3)c(F)c2F)c(N2CCC(C)(C)CC2)c1[C@H](OC(C)(C)C)C(=O)O` (single isomer, unassigned) [Example 71], for which the pEC50 is 8.70. Under setting [1], `CC1(C)CCN(c2c(-c3ccc(OCCc4ccc(F)cc4)c(F)c3)c(N)nc(Cl)c2[C@H](OC(C)(C)C)C(=O)O)CC1` [Example 209, (S)-2-(6-Amino-2-chloro-4-(4,4-dimethylpiperidin-1-yl)-5-(3-fluoro-4-(4-fluorophenethoxy)phenyl)pyridin-3-yl)-2-(tert-butoxy)acetic acid] gave a pEC50 of 8.40. `Cc1cccc(-c2cnc(C)c([C@H](OC(C)(C)C)C(=O)O)c2N2CCC(C)(C)CC2)c1` [Example 177, (2S)-2-(tert-Butoxy)-2-[4-(4,4-dimethylpiperidin-1-yl)-2-methyl-5-(3-methylphenyl)pyridin-3-yl]acetic acid]: under setting [1], the pEC50 is 7.92. As for `Cc1cn(-c2nc(C)c([C@H](OC(C)(C)C)C(=O)O)c(N3CCC(C)(C)CC3)c2-c2ccc(OCCc3ccc(F)cc3)cc2)cn1` (single isomer, unassigned) [Example 56], the pEC50 under setting [1] was 8.70.

In the case of `CN(Cc1nc(Cl)c([C@H](OC(C)(C)C)C(=O)O)c(N2CCC(C)(C)CC2)c1-c1ccc(OCCc2ccc(F)cc2)cc1)CC1CCOCC1` [Example 213, (S)-2-(tert-Butoxy)-2-(2-chloro-4-(4,4-dimethylpiperidin-1-yl)-5-(4-(4-fluorophenethoxy)phenyl)-6-((methyl((tetrahydro-2H-pyran-4-yl)methyl)amino)methyl)pyridin-3-yl)acetic acid], under setting [1], the negative-log EC50 (pEC50) was 9.22. In turn, `Cc1nc(NCCN2CCOCC2)c(-c2ccc(OCCc3ccc(F)cc3)cc2)c(N2CCC(C)(C)CC2)c1[C@H](OC(C)(C)C)C(=O)O` [Example 26, (S)-2-(tert-Butoxy)-2-(4-(4,4-dimethylpiperidin-1-yl)-5-(4-(4-fluorophenethoxy)phenyl)-2-methyl-6-((2-morpholinoethyl)amino)pyridin-3-yl)acetic acid] showed a pEC50 under setting [1] of 9.30.

The molecule `Cc1nc(N(C)CCCN(C)C)c(-c2ccc(OCCc3ccc(F)cc3)cc2)c(N2CCC(C)(C)CC2)c1[C@H](OC(C)(C)C)C(=O)O` [Example 98, (S)-2-(tert-Butoxy)-2-(6-((3-(dimethylamino)propyl)(methyl)amino)-4-(4,4-dimethylpiperidin-1-yl)-5-(4-(4-fluorophenethoxy)phenyl)-2-methylpyridin-3-yl)acetic acid] had a negative-log EC50 (pEC50) under setting [1] of 8.70. As to `CC1(C)CCN(c2c(-c3ccc(OCCc4ccc(F)cc4)cc3)c(N)nc(Cl)c2[C@H](OC(C)(C)C)C(=O)O)CC1` [Example 206, (S)-2-(6-Amino-2-chloro-4-(4,4-dimethylpiperidin-1-yl)-5-(4-(4-fluorophenethoxy)phenyl)pyridin-3-yl)-2-(tert-butoxy)acetic acid], under setting [1], the pEC50 was 8.70. On the same count and under the same terms, to `Cc1ncc(-c2cccc3ccccc23)c(N2CCC(C)(C)CC2)c1[C@H](OC(C)(C)C)C(=O)O` [Example 182, (2S)-2-(tert-Butoxy)-2-[4-(4,4-dimethylpiperidin-1-yl)-2-methyl-5-(naphthalen-1-yl)pyridin-3-yl]acetic acid] belongs 7.57; to `Cc1ncc(-c2ccc(OCC(C)C)nc2)c(N2CCC(C)(C)CC2)c1C(OC(C)(C)C)C(=O)O` (stereo in doubt) [Example 409, (S)-2-(tert-butoxy)-2-(4-(4,4-dimethylpiperidin-1-yl)-6′-isobutoxy-6-methyl-[3,3′-bipyridin]-5-yl)acetic acid], 9.00.

`Cc1ncc(-c2ccc(F)c(F)c2F)c(N2CCC(C)(C)CC2)c1[C@H](OC(C)(C)C)C(=O)O` [Example 162, (2S)-2-(tert-Butoxy)-2-[4-(4,4-dimethylpiperidin-1-yl)-2-methyl-5-(2,3,4-trifluorophenyl)pyridin-3-yl]acetic acid] gave a pEC50 under setting [1] of 8.15. Turning to `CCc1ccc(CCOc2ccc(-c3cnc(C)c([C@H](OC(C)(C)C)C(=O)O)c3N3CCC(C)(C)CC3)nc2)cc1` [Example 322, (2S)-2-(tert-butoxy)-2-[4′-(4,4-dimethylpiperidin-1-yl)-5-[2-(4-ethylphenyl)ethoxy]-6′-methyl-[2,3′-bipyridine]-5′-yl]acetic acid], the pEC50 under setting [1] is 9.15. In the case of `Cc1ncc(-c2cnc(OCCc3ccccc3)c(F)c2)c(N2CCC(C)(C)CC2)c1[C@H](OC(C)(C)C)C(=O)O` [Example 240, (S)-2-(tert-Butoxy)-2-(4-(4,4-dimethylpiperidin-1-yl)-5′-fluoro-6-methyl-6′-phenethoxy-[3,3′-bipyridin]-5-yl)acetic acid], the pEC50 under setting [1] is 9.00. `Cc1ncc(-c2cccc(C(=O)O)c2)c(N2CCC(C)(C)CC2)c1[C@H](OC(C)(C)C)C(=O)O` [Example 147, 3-{5-[(S)-(tert-butoxy) (carboxy)methyl]-4-(4,4-dimethylpiperidin-1-yl)-6-methylpyridin-3-yl}benzoic acid] had a pEC50 under setting [1] of 6.48. Against the preceding molecule, the pEC50 is 2.52 log units lower. Same read-out and setting: the same measure for `Cc1ncc(-c2ccc(OCCc3ccccc3)cc2)c(N2CCC(C)(C)CC2)c1[C@H](OC(C)(C)C)C(=O)O` [Example 265, (S)-2-(tert-Butoxy)-2-(4-(4,4-dimethylpiperidin-1-yl)-2-methyl-5-(4-phenethoxyphenyl)pyridin-3-yl)acetic acid]: 9.00; for `Cc1cccc(CCOc2ncc(-c3cnc(C)c([C@H](OC(C)(C)C)C(=O)O)c3N3CCC(C)(C)CC3)cc2F)c1` [Example 372, (2S)-2-(tert-butoxy)-2-[4-(4,4-dimethylpiperidin-1-yl)-5′-fluoro-6-methyl-6′-[2-(3-methylphenyl)ethoxy]-[3,3′-bipyridine]-5-yl]acetic acid]: 9.00; for `Cc1ccc(CCOc2ccc(-c3cnc(C)c([C@H](OC(C)(C)C)C(=O)O)c3N3CCC(C)(C)CC3)nc2)cc1Cl` [Example 331, (2S)-2-(tert-butoxy)-2-{5-[2-(3-chloro-4-methylphenyl)ethoxy]-4′-(4,4-dimethylpiperidin-1-yl)-6′-methyl-[2,3′-bipyridine]-5′-yl}acetic acid]: 9.30.

For the origin of these results see US20200055839A1 (priority 2017, published 2020).
